Melting point, inhibition and IC50 data for 18 compounds are collected here from patent US8263606B2 (Xenon Pharmaceuticals Inc., priority 2008, dated 2012).

Data set [1] addresses CYP3A4 (Homo sapiens, UniProt P08684). As to the kind of experiment: Cytochrome P450 (CYP450) Inhibition Assay, CYP3A4 (Vivid fluorescence, BOMCC substrate). As to conditions: human, P450 Baculosomes (recombinant CYP3A4), probe BOMCC (Vivid substrate).
Data set [2] relates to sodium channel. As to the kind of experiment: Guanidine influx assay (14C-guanidine radiotracer flux, in vitro). It is filed as cell-based, human or rat. As to conditions: guanidine influx assay using a known cell line that expresses a sodium channel. Put shortly: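 Human or rat sodium channels stably expressed in endogenous or recombinant cells, plated ~100,000 cells/well for 20-24 h at 37 °C. Cells were treated with test agent in low-sodium choline HEPES saline plus aconitine and 14C-guanidine at ambient temperature, washed, and counted by scintillation; IC50 from 4-parameter logistic fit.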

Where only a bound is given, the exact number is not on record here.

CYP3A4, sequence (P08684 whole entry): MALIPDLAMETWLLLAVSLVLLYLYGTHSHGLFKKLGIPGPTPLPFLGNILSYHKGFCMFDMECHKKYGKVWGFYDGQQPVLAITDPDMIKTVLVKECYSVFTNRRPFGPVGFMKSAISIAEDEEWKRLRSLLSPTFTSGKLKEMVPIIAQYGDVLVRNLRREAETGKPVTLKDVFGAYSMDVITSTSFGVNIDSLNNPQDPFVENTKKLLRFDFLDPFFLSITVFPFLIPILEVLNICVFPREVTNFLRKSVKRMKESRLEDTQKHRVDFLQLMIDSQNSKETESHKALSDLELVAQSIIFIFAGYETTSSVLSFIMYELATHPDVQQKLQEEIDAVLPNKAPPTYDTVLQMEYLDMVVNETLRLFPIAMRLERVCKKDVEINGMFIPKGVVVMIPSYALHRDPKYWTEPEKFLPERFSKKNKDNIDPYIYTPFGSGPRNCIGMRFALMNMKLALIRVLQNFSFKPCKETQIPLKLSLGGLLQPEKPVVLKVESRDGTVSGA

`O=C1c2ccccc2C(=O)N1CCCN1C(=O)C2(COc3cc4c(cc32)CCO4)c2ccccc21` (stereo not drawn) [Example 9.66, 2-[3-(2′-oxo-5,6-dihydrospiro[benzo[1,2-b:5,4-b′]difuran-3,3′-indol]-1′(2′H)-yl)propyl]-1H-isoindole-1,3(2H)-dione] showed a melting point of 214 to 217 °C. Also, the inhibition at 10 µM in data set [1] was over 50%. Besides, in data set [2], the IC50 is 1 to 100 nM.

In turn, `O=C1N(Cc2ccc(OCc3ccccc3)cn2)c2ccccc2C12COc1ccc3nonc3c12` (stereo not drawn) [Example 9.67, 1-{[5-(benzyloxy)pyridin-2-yl]methyl}spiro[furo[3,2-e][2,1,3]benzoxadiazole-8,3′-indol]-2′(1′H)-one] gave a melting point of 209 to 212 °C. For the same compound, the inhibition at 10 µM in data set [1] was under 50%. Besides, the IC50 in data set [2] was 100 to 1000 nM.

With `COCCOCCN1C(=O)C2(COc3cc4c(cc32)OCCO4)c2c1ccc1ncsc21` (stereo not drawn) [Example 9.71, 6′-[2-(2-methoxyethoxy)ethyl]-2,3-dihydrospiro[furo[2,3-g][1,4]benzodioxine-8,8′-[1,3]thiazolo[5,4-e]indol]-7′(6′H)-one], the melting point fell in the range of 156 to 158 °C. For the same compound, the inhibition at 10 µM in data set [1] is over 50%. Also, in data set [2], the half-inhibitory concentration (IC50) is 100 to 1000 nM.

On to `O=C1N(Cc2ccccn2)c2ccc3ncsc3c2C12COc1cc3c(cc12)OCCO3` (stereo not drawn) [Example 9.72, 6′-(pyridin-2-ylmethyl)-2,3-dihydrospiro[furo[2,3-g][1,4]-benzodioxine-8,8′-[1,3]thiazolo[5,4-e]indol]-7′(6′H)-one], for which the melting point lay in the range of 156 to 158 °C. In addition, the inhibition at 10 µM in data set [1] was over 50%. The IC50 in data set [2] is 100 to 1000 nM.

The compound `COCCOCCN1C(=O)C2(COc3cc4c(cc32)OCCO4)c2c(OC)cc(OC)cc21` (stereo not drawn) [Example 9.73, 4′,6′-dimethoxy-1′-[2-(2-methoxyethoxy)ethyl]-2,3-dihydrospiro[furo[2,3-g][1,4]benzodioxine-8,3′-indol]-2′(1′H)-one] displayed a melting point of 158 to 160 °C. In addition, in data set [1], the inhibition at 10 µM was over 50%. Besides, the IC50 in data set [2] fell in the range of 1000 to 10000 nM.

As to `COc1cc(OC)c2c(c1)N(Cc1ccccn1)C(=O)C21COc2cc3c(cc21)OCCO3` (stereo not drawn) [Example 9.74, 4′,6′-dimethoxy-1′-(pyridin-2-ylmethyl)-2,3-dihydrospiro[furo[2,3-g][1,4]benzodioxine-8,3′-indol]-2′(1′H)-one], the melting point was in the range of 187 to 188 °C. Moreover, in data set [1], the inhibition at 10 µM is over 50%. Besides, the IC50 in data set [2] was 100 to 1000 nM.

On to `O=C1N(Cc2ccnnc2)c2ccccc2C12COc1cc3c(cc12)CCO3` (stereo not drawn) [Example 10, 1-(pyridazin-4-ylmethyl)-5,6-dihydrospiro[benzo[1,2-b:5,4-b′]difuran-3,3′-indol]-2′(1′H)-one], for which the melting point lay in the range of 187 to 189 °C. The inhibition at 10 µM in data set [1] is over 50%. Further, the IC50 in data set [2] lay in the range of 100 to 1000 nM.

`CN(C)c1ncc(CN2C(=O)C3(COc4cc5c(cc43)OCO5)c3ccccc32)s1` (stereo not drawn) [Example 11.1, 1′-{[2-(dimethylamino)-1,3-thiazol-5-yl]methyl}spiro[furo[2,3-f][1,3]benzodioxole-7,3′-indol]-2′(1′H)-one] came in with a melting point of 200 to 202 °C. The inhibition at 10 µM in data set [1] is over 50%. In addition, in data set [2], the IC50 was in the range of 1 to 100 nM.

For `O=C1N(Cc2cnc(N3CCOCC3)s2)c2ccccc2C12COc1cc3c(cc12)OCO3` (stereo not drawn) [Example 11.2, 1′-[(2-morpholin-4-yl-1,3-thiazol-5-yl)methyl]spiro[furo[2,3-f][1,3]benzodioxole-7,3′-indol]-2′(1′H)-one], the melting point fell in the range of 97 to 99 °C. In addition, the inhibition at 10 µM in data set [1] was over 50%. The IC50 in data set [2] lay in the range of 100 to 1000 nM.

In the case of `O=C1N(Cc2cnc(N3CCCCC3)s2)c2ccccc2C12COc1cc3c(cc12)OCO3` (stereo not drawn) [Example 11.3, 1′-[(2-piperidin-1-yl-1,3-thiazol-5-yl)methyl]spiro[furo[2,3-f][1,3]benzodioxole-7,3′-indol]-2′(1′H)-one], the melting point was in the range of 195 to 197 °C. The inhibition at 10 µM in data set [1] was over 50%. Also, the IC50 in data set [2] was 100 to 1000 nM.

In the case of `COc1ncc(CN2C(=O)C3(COc4cc5c(cc43)OCO5)c3ccccc32)s1` (stereo not drawn) [Example 11.4, 1′-[(2-methoxy-1,3-thiazol-5-yl)methyl]spiro[furo[2,3-f][1,3]benzodioxole-7,3′-indol]-2′(1′H)-one], the melting point lay in the range of 164 to 166 °C. Moreover, in data set [1], the inhibition at 10 µM is over 50%. For the same compound, in data set [2], the IC50 lay in the range of 1 to 100 nM.

Regarding `CN1CCC(CN2C(=O)C3(COc4cc5c(cc43)CCO5)c3ccccc32)CC1` (stereo not drawn) [Example 11.10, 1′-[(1-methylpiperidin-4-yl)methyl]-5,6-dihydrospiro[benzo[1,2-b:5,4-b′]difuran-3,3′-indol]-2′(1′H)-one], the melting point fell in the range of 155 to 158 °C. Also, in data set [1], the inhibition at 10 µM was over 50%. The IC50 in data set [2] is at least 10000 nM.

`O=C(O)c1cccc(CN2C(=O)C3(COc4cc5c(cc43)CCO5)c3ccccc32)c1` (stereo not drawn) [Example 11.12, 3-[(2′-oxo-5,6-dihydrospiro[benzo[1,2-b:5,4-b′]difuran-3,3′-indol]-1′(2′H)-yl)methyl]benzoic acid] yielded a melting point of over 250 °C. In data set [1], the inhibition at 10 µM was under 50%. In data set [2], the IC50 lay within 1000 to 10000 nM.

`O=C1N(Cc2ccc(-c3noc(C(F)(F)F)n3)cc2)c2ccccc2C12COc1cc3c(cc12)CCO3` (stereo not drawn) [Example 11.13, 1′-{4-[5-(trifluoromethyl)-1,2,4-oxadiazol-3-yl]benzyl}-5,6-dihydrospiro[benzo[1,2-b:5,4-b′]difuran-3,3′-indol]-2′(1′H)-one] came in with a melting point of 178 to 179 °C. In addition, the inhibition at 10 µM in data set [1] was under 50%. In addition, in data set [2], the IC50 lay within 100 to 1000 nM.

In the case of `O=C1N(CCc2noc(C(F)(F)F)n2)c2ccccc2C12COc1cc3c(cc12)OCO3` (stereo not drawn) [Example 11.18, 1′-{2-[5-(trifluoromethyl)-1,2,4-oxadiazol-3-yl]ethyl}spiro[furo[2,3-f][1,3]benzodioxole-7,3′-indol]-2′(1′H)-one], the melting point fell in the range of 45 to 48 °C. In addition, the inhibition at 10 µM in data set [1] was over 50%. The IC50 in data set [2] lay in the range of 1 to 100 nM.

In turn, `O=C1N(Cc2noc(C(F)(F)F)n2)c2cccc(Cl)c2C12COc1cc3c(cc12)OCO3` (stereo not drawn) [Example 11.19, 4′-chloro-1′-{[5-(trifluoromethyl)-1,2,4-oxadiazol-3-yl]methyl}spiro[furo[2,3-f][1,3]benzodioxole-7,3′-indol]-2′(1′H)-one] yielded a melting point of 138 to 140 °C. Moreover, the inhibition at 10 µM in data set [1] was over 50%. Moreover, the IC50 in data set [2] is 1 to 100 nM.

`O=C1N(Cc2noc(C3CC3)n2)c2cccc(Cl)c2C12COc1cc3c(cc12)OCO3` (stereo not drawn) [Example 11.20, 4′-chloro-1′-[(5-cyclopropyl-1,2,4-oxadiazol-3-yl)methyl]spiro[furo[2,3-f][1,3]benzodioxole-7,3′-indol]-2′(1′H)-one] returned a melting point of 180 to 182 °C. Also, in data set [1], the inhibition at 10 µM was over 50%. Moreover, the IC50 in data set [2] fell in the range of 1 to 100 nM.

`O=C1N(Cc2noc(C(F)F)n2)c2cccc(Cl)c2C12COc1cc3c(cc12)OCO3` (stereo not drawn) [Example 11.21] gave a melting point of 179 to 182 °C. Also, the inhibition at 10 µM in data set [1] is over 50%. Moreover, the IC50 in data set [2] lay within 1 to 100 nM.
